Experimental data: patent publication US9241488B2, “Azole derivative, method for producing azole derivative, and intermediate compound” (KUREHA CORPORATION, priority 2011, dated 2016)
Where two headings read alike, the source gives them in different places.

What was measured:
[1] = tested on: Wheat pink snow mold (Microdochium nivale); experiment: Anti-bacterial effect on various microorganisms (plate medium), M.n; format: cell-based
[2] = tested on: Barley loose smut (Ustilago nuda); experiment: Anti-bacterial effect on various microorganisms (plate medium), U.n; format: cell-based
[3] = tested on: Alternaria blotch (Alternaria alternata); experiment: Anti-bacterial effect on various microorganisms (plate medium), A.m; format: cell-based
[4] = tested on: Gray mold (Botritis cinerea); experiment: Anti-bacterial effect on various microorganisms (plate medium), B.c; format: cell-based
[5] = tested on: wheat-brown-rust-causing microorganisms; experiment: Controlling effect on wheat brown rust (spray, pot test); format: in vivo, Puccinia recondita; details: 1 mg/L sprayed at 1,000 L/ha, wheat NORIN No. 61, 9 to 14 days after inoculation
Description: Onto a wheat plant (cultivar: NORIN No. 61) grown to the two-leaf stage with use of a square plastic pot (6 cm×6 cm), a wettable formulation such as Formulation Example 1 which was diluted and suspended in water at a concentration of 1 mg/L was sprayed at a rate of 1,000 L/ha. The sprayed leaves were air-dried, and inoculated with spore suspension of wheat-brown-rust-causing microorganisms (adjusted at 200 spores/vision, […] was added at 60 ppm) by spraying, and kept at 25° C. and a high humidity for 48 hours. Thereafter, the plant was kept in a greenhouse. Nine to fourteen days after inoculation, the wheat brown rust lesion degree was evaluated. The protective value was calculated by the following equation. Protective value (%)=(1-mean lesion degree in sprayed plot/mean lesion degree in unsprayed plot)×100 [table] [table]

[6] = tested on: Barley leaf blotch (Rhynchosporium secalis); experiment: Anti-bacterial effect on various microorganisms (plate medium), R. sec; format: cell-based
[7] = tested on: Rice blast (Pyricularia oryzae); format: cell-based
[8] = tested on: Rice bakanae disease (Giberella fujikuroi); experiment: Anti-bacterial effect on various microorganisms (plate medium), G.f; format: cell-based
[9] = tested on: Wheat Septoria nodorum blotch microorganism (Phaeosphaeria nodorum); experiment: Anti-bacterial effect on various microorganisms (plate medium), P.n; format: cell-based
[10] = tested on: Sclerotinia rot (Sclerotinia sclerotiorum); experiment: Anti-bacterial effect on various microorganisms (plate medium), S.s; format: cell-based
[11] = tested on: Wheat eye spot (Pseudocercoporella herpotrichoides); experiment: Anti-bacterial effect on various microorganisms (plate medium), P.h; format: cell-based
[12] = tested on: Cucumber fusarium wilt (Fusarium oxysporum); experiment: Anti-bacterial effect on various microorganisms (plate medium), F.c; format: cell-based
[13] = tested on: Rice bacterial seeding blight (Rhizopus oryzae); experiment: Anti-bacterial effect on various microorganisms (plate medium), R.o; format: cell-based
[14] = tested on: wheat leaf blight-causing microorganisms; experiment: Anti-bacterial effect on wheat leaf blight-causing microorganisms (PDA plate, mycelial growth inhibition); format: cell-based, Septoria tritici; details: 1.25 mg/L in PDA plate medium, 25° C., 14 days
Description: In Test Examples, an anti-bacterial effect of a compound in accordance with the present invention on the wheat leaf blight-causing microorganisms was tested, and was compared with the anti-bacterial effect of a comparative compound (1).
A dimethyl sulfoxide solution (0.6 ml) containing a compound in accordance with the present invention was added to a PDA medium (potato dextrose agar medium) (60 ml) having about 60° C., and the resultant mixture was mixed thoroughly in a 100-ml conical flask. The mixture was poured into a dish, and was solidified. […]
On the other hand, a subject microorganism previously cultured on a plate medium was cut out with use of a cork borer whose diameter was 4 mm, and the wheat leaf blight-causing microorganism on the plate medium thus cut out was inoculated to the chemical-containing plate medium described above. After such inoculation, the chemical-containing plate medium was incubated at 25° C. for 14 days, and then diameters of its flora were measured. A % mycelial growth inhibition was calculated with use of the formula. R=100(dc−dt)/dc (where R=% mycelial extension inhibition, dc=flora diameter in untreated plate, dt=flora diameter in treated plate)
The results obtained as described above were evaluated on a five-point scale according to the following criteria.
• 5: % Mycerial growth inhibition of 80% or higher • 4: % Mycerial growth inhibition of less than 80 to 60% or higher • 3: % Mycerial growth inhibition of less than 60 to 40% or higher • 2: % Mycerial growth inhibition of less than 40 to 20% or higher • 1: % Mycerial growth inhibition of less than 20%

[15] = tested on: Wheat fusarium blight (Fusarium graminearum); format: cell-based

| Structure (SMILES) | Growth inhibition grade M.n ([1]; 1.25 mg/L) | Growth inhibition grade M.n ([1]; 5 mg/L) | Growth inhibition grade U.n ([2]; 1.25 mg/L) | Growth inhibition grade U.n ([2]; 5 mg/L) | Growth inhibition grade A.m ([3]; 1.25 mg/L) | Growth inhibition grade A.m ([3]; 5 mg/L) | Growth inhibition grade B.c ([4]; 1.25 mg/L) | Growth inhibition grade B.c ([4]; 5 mg/L) | Protective value [5] | Growth inhibition grade R. sec ([6]; 1.25 mg/L) | Growth inhibition grade R. sec ([6]; 5 mg/L) | Growth inhibition grade P.o ([7]; 1.25 mg/L) | Growth inhibition grade P.o ([7]; 5 mg/L) | Growth inhibition grade G.f ([8]; 1.25 mg/L) | Growth inhibition grade G.f ([8]; 5 mg/L) | Growth inhibition grade P.n ([9]; 1.25 mg/L) | Growth inhibition grade P.n ([9]; 5 mg/L) | Growth inhibition grade S.s ([10]; 1.25 mg/L) | Growth inhibition grade S.s ([10]; 5 mg/L) | Growth inhibition grade P.h ([11]; 1.25 mg/L) | further results |
| --- | --- | --- | --- | --- | --- | --- | --- | --- | --- | --- | --- | --- | --- | --- | --- | --- | --- | --- | --- | --- | --- |
| COC[C@]1(CBr)CC[C@@H](Cc2ccc(F)cc2)[C@]1(O)Cn1cncn1 (racemic) [Compound I-198, (1RS,2RS,5SR)-5-(4-fluorobenzyl)-2-bromomethyl-2-methoxymethyl-1H-[1,2,4]triazole-1-ylmethylcyclopentanol] | 4 (% Mycerial growth inhibition of less than 80 to 60% or higher) | 5 (% Mycerial growth inhibition of 80% or higher) | 4 (% Mycerial growth inhibition of less than 80 to 60% or higher) | 5 (% Mycerial growth inhibition of 80% or higher) | 4 (% Mycerial growth inhibition of less than 80 to 60% or higher) | 5 (% Mycerial growth inhibition of 80% or higher) | 5 (% Mycerial growth inhibition of 80% or higher) | 5 (% Mycerial growth inhibition of 80% or higher) | 4 (61 to 80) | 5 (% Mycerial growth inhibition of 80% or higher) | 5 (% Mycerial growth inhibition of 80% or higher) | 5 (% Mycerial growth inhibition of 80% or higher) | 5 (% Mycerial growth inhibition of 80% or higher) | 5 (% Mycerial growth inhibition of 80% or higher) | 5 (% Mycerial growth inhibition of 80% or higher) | 4 (% Mycerial growth inhibition of less than 80 to 60% or higher) | 5 (% Mycerial growth inhibition of 80% or higher) | 5 (% Mycerial growth inhibition of 80% or higher) | 5 (% Mycerial growth inhibition of 80% or higher) | 4 (% Mycerial growth inhibition of less than 80 to 60% or higher) | Growth inhibition grade P.h ([11]; 5 mg/L): 5 (% Mycerial growth inhibition of 80% or higher); Growth inhibition grade F.c ([12]; 1.25 mg/L): 5 (% Mycerial growth inhibition of 80% or higher); Growth inhibition grade F.c ([12]; 5 mg/L): 5 (% Mycerial growth inhibition of 80% or higher); Growth inhibition grade R.o ([13]; 1.25 mg/L): 5 (% Mycerial growth inhibition of 80% or higher); Growth inhibition grade R.o ([13]; 5 mg/L): 5 (% Mycerial growth inhibition of 80% or higher); Growth inhibition grade [14]: 5 (% Mycerial growth inhibition of 80% or higher); Growth inhibition grade F.g ([15]; 1.25 mg/L): 4 (% Mycerial growth inhibition of less than 80 to 60% or higher); Growth inhibition grade F.g ([15]; 5 mg/L): 5 (% Mycerial growth inhibition of 80% or higher) |
| COC[C@]1(CBr)CC[C@@H](Cc2ccccc2)[C@]1(O)Cn1cncn1 (racemic) [Compound I-203, (1RS,2RS,5SR)-5-benzyl-2-bromomethyl-2-methoxymethyl-1H-[1,2,4]triazole-1-ylmethylcyclopentanol] | 5 (% Mycerial growth inhibition of 80% or higher) | 5 (% Mycerial growth inhibition of 80% or higher) | 5 (% Mycerial growth inhibition of 80% or higher) | 5 (% Mycerial growth inhibition of 80% or higher) | 4 (% Mycerial growth inhibition of less than 80 to 60% or higher) | 5 (% Mycerial growth inhibition of 80% or higher) | 5 (% Mycerial growth inhibition of 80% or higher) | 5 (% Mycerial growth inhibition of 80% or higher) | 4 (61 to 80) | 5 (% Mycerial growth inhibition of 80% or higher) | 5 (% Mycerial growth inhibition of 80% or higher) | 5 (% Mycerial growth inhibition of 80% or higher) | 5 (% Mycerial growth inhibition of 80% or higher) | 5 (% Mycerial growth inhibition of 80% or higher) | 5 (% Mycerial growth inhibition of 80% or higher) | 4 (% Mycerial growth inhibition of less than 80 to 60% or higher) | 5 (% Mycerial growth inhibition of 80% or higher) | 5 (% Mycerial growth inhibition of 80% or higher) | 5 (% Mycerial growth inhibition of 80% or higher) | 4 (% Mycerial growth inhibition of less than 80 to 60% or higher) | Growth inhibition grade P.h ([11]; 5 mg/L): 5 (% Mycerial growth inhibition of 80% or higher); Growth inhibition grade F.c ([12]; 1.25 mg/L): 5 (% Mycerial growth inhibition of 80% or higher); Growth inhibition grade F.c ([12]; 5 mg/L): 5 (% Mycerial growth inhibition of 80% or higher); Growth inhibition grade R.o ([13]; 1.25 mg/L): 4 (% Mycerial growth inhibition of less than 80 to 60% or higher); Growth inhibition grade R.o ([13]; 5 mg/L): 5 (% Mycerial growth inhibition of 80% or higher); Growth inhibition grade [14]: 4 (% Mycerial growth inhibition of less than 80 to 60% or higher); Growth inhibition grade F.g ([15]; 1.25 mg/L): 5 (% Mycerial growth inhibition of 80% or higher); Growth inhibition grade F.g ([15]; 5 mg/L): 5 (% Mycerial growth inhibition of 80% or higher) |
| CCOC[C@]1(CCl)CC[C@@H](Cc2ccc(F)cc2)[C@]1(O)Cn1cncn1 (racemic) [Compound I-226, (1RS,2RS,5SR)-5-(4-fluorobenzyl)-2-chloromethyl-2-ethoxymethyl-1H-[1,2,4]triazole-1-ylmethylcyclopentanol] | 5 (% Mycerial growth inhibition of 80% or higher) | 5 (% Mycerial growth inhibition of 80% or higher) | 5 (% Mycerial growth inhibition of 80% or higher) | 5 (% Mycerial growth inhibition of 80% or higher) | 4 (% Mycerial growth inhibition of less than 80 to 60% or higher) | 5 (% Mycerial growth inhibition of 80% or higher) | 5 (% Mycerial growth inhibition of 80% or higher) | 5 (% Mycerial growth inhibition of 80% or higher) | 4 (61 to 80) | 5 (% Mycerial growth inhibition of 80% or higher) | 5 (% Mycerial growth inhibition of 80% or higher) | 5 (% Mycerial growth inhibition of 80% or higher) | 5 (% Mycerial growth inhibition of 80% or higher) | 5 (% Mycerial growth inhibition of 80% or higher) | 5 (% Mycerial growth inhibition of 80% or higher) | 5 (% Mycerial growth inhibition of 80% or higher) | 5 (% Mycerial growth inhibition of 80% or higher) | 5 (% Mycerial growth inhibition of 80% or higher) | 5 (% Mycerial growth inhibition of 80% or higher) | 4 (% Mycerial growth inhibition of less than 80 to 60% or higher) | Growth inhibition grade P.h ([11]; 5 mg/L): 5 (% Mycerial growth inhibition of 80% or higher); Growth inhibition grade F.c ([12]; 1.25 mg/L): 5 (% Mycerial growth inhibition of 80% or higher); Growth inhibition grade F.c ([12]; 5 mg/L): 5 (% Mycerial growth inhibition of 80% or higher); Growth inhibition grade R.o ([13]; 1.25 mg/L): 5 (% Mycerial growth inhibition of 80% or higher); Growth inhibition grade R.o ([13]; 5 mg/L): 5 (% Mycerial growth inhibition of 80% or higher); Growth inhibition grade [14]: 5 (% Mycerial growth inhibition of 80% or higher); Growth inhibition grade F.g ([15]; 1.25 mg/L): 5 (% Mycerial growth inhibition of 80% or higher); Growth inhibition grade F.g ([15]; 5 mg/L): 5 (% Mycerial growth inhibition of 80% or higher) |
